Patent US12486269B2 (Aconcagua Bio, Inc., priority 2024, dated 2025)

How the values were obtained:
[1] = target: T1, COS-7/AMY3 (human calcitonin receptor (CTR) and RAMP3) (Homo sapiens, UniProt O60896+P30988); assay: Amylin Receptor cAMP Assay II; assay type: cell-based; settings: values marked **: Amylin Receptor cAMP Assay II; COS-7/AMY3 cells, cAMP dynamic 2 kit, 30 min; read-out: Amylin Receptor cAMP Stimulation Activity: EC50
T1 construct: expressed in transfected cells; host or cells: COS-7
T1 sequence (O60896 24-148, one chain of several): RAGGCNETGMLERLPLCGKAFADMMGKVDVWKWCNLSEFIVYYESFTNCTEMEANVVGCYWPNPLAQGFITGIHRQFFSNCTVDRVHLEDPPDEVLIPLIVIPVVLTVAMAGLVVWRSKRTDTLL
Method in brief: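 COS-7 cells stably co-expressing human CTR and RAMP3 (AMY3), 2000 cells/well in HBSS with 20 mM HEPES, 0.5 mM IBMX, 0.1% casein, stimulated with compound for 30 min at 37 °C. cAMP measured by HTRF (665/615 nm), activity normalized between vehicle and maximal control.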

[2] = target: T2, human calcitonin receptor (CTR) (Homo sapiens, UniProt P30988); assay: Calcitonin Receptor (CTR) cAMP Assay; assay type: cell-based; settings: COS7-human CTR Clone #2 stable cell line, cAMP dynamic 2 kit, 30 min; read-out: Calcitonin Receptor cAMP Stimulation Activity: EC50
T2 construct: expressed in transfected cells; host or cells: COS-7 (COS7-human CTR Clone #2)
T2 sequence (P30988 25-474): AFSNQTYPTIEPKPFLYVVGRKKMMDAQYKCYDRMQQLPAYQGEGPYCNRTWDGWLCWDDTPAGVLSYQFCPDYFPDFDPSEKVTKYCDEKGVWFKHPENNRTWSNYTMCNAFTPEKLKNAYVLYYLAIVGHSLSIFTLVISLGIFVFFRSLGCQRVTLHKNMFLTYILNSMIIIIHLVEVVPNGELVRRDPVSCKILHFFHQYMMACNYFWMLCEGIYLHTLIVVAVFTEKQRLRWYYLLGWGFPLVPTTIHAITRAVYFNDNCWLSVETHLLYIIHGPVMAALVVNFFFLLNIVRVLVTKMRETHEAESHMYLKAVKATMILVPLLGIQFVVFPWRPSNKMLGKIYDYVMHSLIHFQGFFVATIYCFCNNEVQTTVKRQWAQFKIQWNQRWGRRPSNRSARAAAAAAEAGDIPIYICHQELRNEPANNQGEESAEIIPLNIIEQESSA
Method in brief: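 COS-7 cells stably expressing human CTR (2000 cells/well) were incubated 30 min at 37 °C with 4-fold serially diluted compound in HBSS/20 mM HEPES/0.5 mM IBMX/0.1% casein. cAMP was detected by HTRF (665/615 nm) after 1 h at RT. % activity was normalised to vehicle and positive controls.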

| SMILES | EC50 [1] [nM] | EC50 [2] [nM] |
| --- | --- | --- |
| COc1c(F)cc(F)c2c1CC[C@H]2Nc1nccc2cc(-c3c4c(nc(CCc5ccc(F)cc5)c3-c3n[nH]c(=O)o3)C35CC(CN3C4=O)C5)sc12 [Compound 288, (R)-5-(4-(7-((5,7-difluoro-4-methoxy-2,3-dihydro-1H-inden-1-yl)amino)thieno[2,3-c]pyridin-2-yl)-2-(4-fluorophenethyl)-5-oxo-8,9-dihydro-5H,7H-8,9a-methanopyrido[2,3-a]pyrrolizin-3-yl)-1,3,4-oxadiazol-2(3H)-one] | 1.59 | 0.0436 |
| COc1c(Cl)cc2c(c1F)CC[C@H]2Nc1nccc2cc(-c3c4c(nc(CCc5ccc(F)cc5)c3-c3n[nH]c(=O)o3)C35CC(CN3C4=O)C5)sc12 [Compound 289, (R)-5-(4-(7-((6-chloro-4-fluoro-5-methoxy-2,3-dihydro-1H-inden-1-yl)amino)thieno[2,3-c]pyridin-2-yl)-2-(4-fluorophenethyl)-5-oxo-5,7,8,9-tetrahydro-8,9a-methanopyrido[2,3-a]pyrrolizin-3-yl)-1,3,4-oxadiazol-2(3H)-one] | 0.54 | 0.0645 |
| COc1c(F)ccc2c1CC(F)(F)[C@@H]2Nc1nccc2cc(-c3c4c(nc(CCc5ccc(F)cc5)c3-c3n[nH]c(=O)o3)[C@@H]3CCCN3C4=O)sc12 [Compound 290, 5-((S)-2-(4-fluorophenethyl)-5-oxo-4-(7-(((R)-2,2,5-trifluoro-4-methoxy-2,3-dihydro-1H-inden-1-yl)amino)thieno[2,3-c]pyridin-2-yl)-7,8,9,9a-tetrahydro-5H-pyrido[2,3-a]pyrrolizin-3-yl)-1,3,4-oxadiazol-2(3H)-one] | 1640 | 17.6 |
| COc1c(F)ccc2c1C[C@@H](F)[C@H]2Nc1nccc2cc(-c3c4c(nc(CCc5ccc(F)cc5)c3-c3n[nH]c(=O)o3)C35CC(CN3C4=O)C5)sc12 [Compound 291, 5-(4-(7-(((1S,2R)-2,5-difluoro-4-methoxy-2,3-dihydro-1H-inden-1-yl)amino)thieno[2,3-c]pyridin-2-yl)-2-(4-fluorophenethyl)-5-oxo-5,7,8,9-tetrahydro-8,9a-methanopyrido[2,3-a]pyrrolizin-3-yl)-1,3,4-oxadiazol-2(3H)-one] | 0.363 | 0.0138 |
| COc1c(F)ccc2c1CC(F)(F)[C@@H]2Nc1nccc2cc(-c3c4c(nc(CCc5ccc(F)cc5)c3-c3n[nH]c(=O)o3)C35CC(CN3C4=O)C5)sc12 [Compound 292, (R)-5-(2-(4-fluorophenethyl)-5-oxo-4-(7-((2,2,5-trifluoro-4-methoxy-2,3-dihydro-1H-inden-1-yl)amino)thieno[2,3-c]pyridin-2-yl)-5,7,8,9-tetrahydro-8,9a-methanopyrido[2,3-a]pyrrolizin-3-yl)-1,3,4-oxadiazol-2(3H)-one] | 298 | 7.36 |
| O=C1c2c(nc(CCc3ccc(F)cc3)c(-c3n[nH]c(=O)o3)c2-c2cc3ccnc(N[C@@H]4CCOc5c(F)cc(F)cc54)c3s2)C23CC(CN12)C3 [Compound 293, (R)-5-(4-(7-((6,8-difluorochroman-4-yl)amino)thieno[2,3-c]pyridin-2-yl)-2-(4-fluorophenethyl)-5-oxo-8,9-dihydro-5H,7H-8,9a-methanopyrido[2,3-a]pyrrolizin-3-yl)-1,3,4-oxadiazol-2(3H)-one] | 2.68 | 0.0485 |
| COc1cc(F)cc2c1CC[C@H]2Nc1nccc2cc(-c3c4c(nc(CCc5ccc(F)cc5)c3-c3n[nH]c(=O)o3)C35CC(CN3C4=O)C5)sc12 [Compound 294, (R)-5-(4-(7-((6-fluoro-4-methoxy-2,3-dihydro-1H-inden-1-yl)amino)thieno[2,3-c]pyridin-2-yl)-2-(4-fluorophenethyl)-5-oxo-5,7,8,9-tetrahydro-8,9a-methanopyrido[2,3-a]pyrrolizin-3-yl)-1,3,4-oxadiazol-2(3H)-one] | 0.562 | 0.0435 |
| Cc1cc2cc(-c3c4c(nc(CCc5ccc(F)cc5)c3-c3n[nH]c(=O)o3)C35CC(CN3C4=O)C5)sc2c(N[C@@H]2CCOc3c(F)cc(F)cc32)n1 [Compound 295, (R)-5-(4-(7-((6,8-difluorochroman-4-yl)amino)-5-methylthieno[2,3-c]pyridin-2-yl)-2-(4-fluorophenethyl)-5-oxo-8,9-dihydro-5H,7H-8,9a-methanopyrido[2,3-a]pyrrolizin-3-yl)-1,3,4-oxadiazol-2(3H)-one] | 1.21 | 0.0289 |
| COc1c(F)ccc2c1CC(F)(F)[C@H]2Nc1nc(C)cc2cc(-c3c4c(nc(CCc5ccc(F)cc5)c3-c3n[nH]c(=O)o3)C35CC(CN3C4=O)C5)sc12 [Compound 296, (S)-5-(2-(4-fluorophenethyl)-4-(5-methyl-7-((2,2,5-trifluoro-4-methoxy-2,3-dihydro-1H-inden-1-yl)amino)thieno[2,3-c]pyridin-2-yl)-5-oxo-8,9-dihydro-5H,7H-8,9a-methanopyrido[2,3-a]pyrrolizin-3-yl)-1,3,4-oxadiazol-2(3H)-one] | 0.272 | 0.0164 |
| O=C1c2c(nc(CCc3ccc(F)cc3)c(-c3n[nH]c(=O)o3)c2-c2cc3cc(C(F)F)nc(N[C@@H]4CCOc5c(F)cc(F)cc54)c3s2)C23CC(CN12)C3 [Compound 297, (R)-5-(4-(7-((6,8-difluorochroman-4-yl)amino)-5-(difluoromethyl)thieno[2,3-c]pyridin-2-yl)-2-(4-fluorophenethyl)-5-oxo-8,9-dihydro-5H,7H-8,9a-methanopyrido[2,3-a]pyrrolizin-3-yl)-1,3,4-oxadiazol-2(3H)-one] | 1.07 | 0.0413 |
| COc1cc(F)cc2c1CC[C@H]2Nc1nc(C)cc2cc(-c3c4c(nc(CCc5ccc(F)cc5)c3-c3n[nH]c(=O)o3)C35CC(CN3C4=O)C5)sc12 [Compound 298, (R)-5-(4-(7-((6-fluoro-4-methoxy-2,3-dihydro-1H-inden-1-yl)amino)-5-methylthieno[2,3-c]pyridin-2-yl)-2-(4-fluorophenethyl)-5-oxo-8,9-dihydro-5H,7H-8,9a-methanopyrido[2,3-a]pyrrolizin-3-yl)-1,3,4-oxadiazol-2(3H)-one] | 0.747 | 0.0212 |
| COc1c(F)c(F)cc2c1CC[C@H]2Nc1nc(C)cc2cc(-c3c4c(nc(CCc5ccc(F)cc5)c3-c3n[nH]c(=O)o3)[C@@H]3CCCN3C4=O)sc12 [Compound 299, 5-((S)-4-(7-(((R)-5,6-difluoro-4-methoxy-2,3-dihydro-1H-inden-1-yl)amino)-5-methylthieno[2,3-c]pyridin-2-yl)-2-(4-fluorophenethyl)-5-oxo-7,8,9,9a-tetrahydro-5H-pyrido[2,3-a]pyrrolizin-3-yl)-1,3,4-oxadiazol-2(3H)-one] | 0.363 | 0.0172 |
| COc1c(F)ccc2c1CC[C@H]2Nc1nc(C)cc2cc(-c3c4c(nc(CCc5cccc(F)c5)c3-c3n[nH]c(=O)o3)C35CC(CN3C4=O)C5)sc12 [Compound 300, (R)-5-(4-(7-((5-fluoro-4-methoxy-2,3-dihydro-1H-inden-1-yl)amino)-5-methylthieno[2,3-c]pyridin-2-yl)-2-(3-fluorophenethyl)-5-oxo-8,9-dihydro-5H,7H-8,9a-methanopyrido[2,3-a]pyrrolizin-3-yl)-1,3,4-oxadiazol-2(3H)-one] | 0.362 | 0.016 |
| COc1c(F)ccc2c1C[C@@H](F)[C@H]2Nc1nc(C)cc2cc(-c3c4c(nc(CCc5ccc(F)cc5)c3-c3n[nH]c(=O)o3)[C@@H]3CCCN3C4=O)sc12 [Compound 301, 5-((S)-4-(7-(((1S,2R)-2,5-difluoro-4-methoxy-2,3-dihydro-1H-inden-1-yl)amino)-5-methylthieno[2,3-c]pyridin-2-yl)-2-(4-fluorophenethyl)-5-oxo-7,8,9,9a-tetrahydro-5H-pyrido[2,3-a]pyrrolizin-3-yl)-1,3,4-oxadiazol-2(3H)-one] | 0.857 | 0.0551 |
| COc1c(F)ccc2c1CC[C@H]2Nc1nc(C)cc2cc(-c3c4c(nc(CCc5ccc(F)cc5)c3-c3n[nH]c(=O)o3)C(C3CC3)NC4=O)sc12 (stereo partly drawn) [Compound 302, 5-(7-cyclopropyl-4-(7-(((R)-5-fluoro-4-methoxy-2,3-dihydro-1H-inden-1-yl)amino)-5-methylthieno[2,3-c]pyridin-2-yl)-2-(4-fluorophenethyl)-5-oxo-6,7-dihydro-5H-pyrrolo[3,4-b]pyridin-3-yl)-1,3,4-oxadiazol-2(3H)-one] | 3.97 | 0.134 |
| COc1c(F)ccc2c1CC(F)(F)[C@H]2Nc1nc(C)cc2cc(-c3c4c(nc(CCc5ccc(F)cc5)c3-c3n[nH]c(=O)o3)[C@@H]3CCCN3C4=O)sc12 [Compound 303, 5-((S)-2-(4-fluorophenethyl)-4-(5-methyl-7-(((S)-2,2,5-trifluoro-4-methoxy-2,3-dihydro-1H-inden-1-yl)amino)thieno[2,3-c]pyridin-2-yl)-5-oxo-7,8,9,9a-tetrahydro-5H-pyrido[2,3-a]pyrrolizin-3-yl)-1,3,4-oxadiazol-2(3H)-one] | 0.695 | 0.0337 |
